Experiment [1] has as its target T1, full length Keap1 protein / full length NRF2 protein (Homo sapiens, UniProt Q14145).
T1 construct: full length NRF2 protein and full length Keap1 protein (Keap1 exists a dimer) are used; His
The experiment is described as follows: NRF2-Keap1 TR-FRET Assay. The note with it: 25 nM Keap1-FlagHis and 50 nM biotin-NRF2 added. Type of experiment: binding. In a few lines:
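Full-length Keap1-FlagHis preincubated with compound 2.25 h at 37 °C, then biotin-NRF2 added for 1.25 h at 4 °C, in Tris pH 8.0 with MgCl2, NaCl, BSA, DTT, CHAPS. TR-FRET 665/615 nm ratio normalised to with- and without-protein 1% DMSO controls; pIC50 from four-parameter fit.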
A general note: In TR-FRET formats the signal depends on donor and acceptor labels being close together.

The target of experiment [2] is T2, Keap1 Kelch domain (321-609) / TAMRA-labeled 16mer NRF2 peptide (ETGE motif) (Homo sapiens, UniProt Q14145).
T2 construct: the Kelch domain (321-609) of Keap1 is used
T2 sequence (Q14145 321-609): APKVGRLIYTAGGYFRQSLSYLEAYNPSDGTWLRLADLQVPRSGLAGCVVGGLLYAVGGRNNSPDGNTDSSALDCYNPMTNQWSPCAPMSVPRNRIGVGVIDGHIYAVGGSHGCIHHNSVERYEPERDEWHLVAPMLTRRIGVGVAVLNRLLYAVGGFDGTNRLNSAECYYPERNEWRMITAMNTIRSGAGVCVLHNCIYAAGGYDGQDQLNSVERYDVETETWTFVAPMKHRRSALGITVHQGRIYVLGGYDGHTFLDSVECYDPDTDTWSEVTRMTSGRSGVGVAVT
The experiment is described as follows: NRF2-Keap1 FP Assay (Keap1 Kelch fluorescence polarization). Format: binding. To be noted: 20 nM Keap1 (321-609), 8 nM Tamra labeled peptide. In a few lines:
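Compound dilutions (3-fold) were incubated 1 hr at room temperature with 20 nM Keap1 Kelch (321-609) and 8 nM TAMRA-labeled ETGE 16mer peptide. Buffer was 50 mM Tris pH 8.0, 100 mM NaCl, 5 mM MgCl2, 1 mM DTT, 2 mM CHAPS, 0.005% BSA. Fluorescence polarization (mP) was normalized to controls and fitted with a four-parameter equation to give pIC50.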
Background: Polarisation of emitted light reports the rotation of a fluorescent probe.

The structures appear in SMILES notation.

T1 sequence (Q14145 whole entry): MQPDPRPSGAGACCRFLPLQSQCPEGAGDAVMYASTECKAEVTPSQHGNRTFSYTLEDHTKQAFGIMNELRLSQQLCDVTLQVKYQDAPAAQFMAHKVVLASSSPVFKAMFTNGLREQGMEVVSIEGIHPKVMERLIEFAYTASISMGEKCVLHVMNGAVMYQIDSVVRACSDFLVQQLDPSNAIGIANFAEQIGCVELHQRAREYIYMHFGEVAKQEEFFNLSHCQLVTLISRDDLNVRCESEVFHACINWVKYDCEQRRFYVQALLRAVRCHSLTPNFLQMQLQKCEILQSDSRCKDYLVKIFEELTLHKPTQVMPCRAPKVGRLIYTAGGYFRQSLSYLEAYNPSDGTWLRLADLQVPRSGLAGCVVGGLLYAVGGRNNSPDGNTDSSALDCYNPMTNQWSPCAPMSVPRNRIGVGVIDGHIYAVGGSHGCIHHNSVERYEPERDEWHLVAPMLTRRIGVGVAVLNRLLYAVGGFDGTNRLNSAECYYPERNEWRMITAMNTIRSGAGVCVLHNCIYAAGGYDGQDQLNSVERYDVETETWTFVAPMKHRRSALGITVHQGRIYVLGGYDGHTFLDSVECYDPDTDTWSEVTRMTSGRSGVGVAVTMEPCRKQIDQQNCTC

In general, IC50 refers to the concentration needed to halve the response being measured. Low readings indicate higher potency, high ones lower potency. With `Cn1cc([C@@H]2C[C@H]2c2c(C(=O)O)cnn2-c2cccc(-c3cccc(OCCC4CCCCC4)c3)c2)nn1` (racemic) [Example 245, 1-(3′-(2-cyclohexylethoxy)-[1,1′-biphenyl]-3-yl)-5-(trans-2-(1-methyl-1H-1,2,3-triazol-4-yl)cyclopropyl)-1H-pyrazole-4-carboxylic Acid], the half-inhibitory concentration (IC50) in experiment [1] lay in the range of 100 to 1000 nM; in experiment [2], 10 to 100 nM.

As to `CCC[C@@H]1CCCCN1C(=O)c1cccc(-c2cc(C)cc(-n3ncc(C(=O)O)c3[C@@H]3C[C@H]3c3cn(C)nn3)c2)c1` (single isomer, unassigned) [Example 155], the concentration for half-maximal inhibition (IC50) in experiment [1] and in experiment [2] was 10 to 100 nM in each case.

In the case of `Cn1cc([C@@H]2C[C@H]2c2c(C(=O)O)cnn2-c2cccc(-c3cccc(OCC4CCCCC4C(F)(F)F)c3)c2)nn1` (mixture of isomers) [Example 148, 5-((1,2-trans)-2-(1-Methyl-1H-1,2,3-triazol-4-yl)cyclopropyl)-1-(3′-((2-(trifluoromethyl)cyclohexyl)methoxy)-[1,1′-biphenyl]-3-yl)-1H-pyrazole-4-carboxylic acid], the IC50 in experiment [1] was 100 to 1000 nM; in experiment [2] it was 10 to 100 nM.

On to `Cn1cc([C@@H]2C[C@H]2c2c(C(=O)O)cnn2-c2cccc(-c3cccc(OCC4CCCCC4)c3)c2)nn1` [Example 171, 1-(3′-(Cyclohexylmethoxy)-[1,1′-biphenyl]-3-yl)-5-((1R,2R)-2-(1-methyl-1H-1,2,3-triazol-4-yl)cyclopropyl)-1H-pyrazole-4-carboxylic acid], for which the 50% inhibitory concentration (IC50) was 100 to 1000 nM in experiment [1] and 10 to 100 nM in experiment [2].

On to `CCCC1CCCCN1C(=O)c1cccc(-c2cccc(-n3ncc(C(=O)O)c3C3CC3c3cn(C)nn3)c2)c1` (centres unmarked) [Example 42, 5-[2-(1-methyl-1H-1,2,3-triazol-4-yl)cyclopropyl]-1-{3-[3-(2-propylpiperidine-1-carbonyl)phenyl]phenyl}-1H-pyrazole-4-carboxylic Acid], for which the IC50 in experiment [1] and in experiment [2] was 10 to 100 nM throughout.

In the case of `Cn1cc([C@H]2C[C@@H]2c2c(C(=O)O)cnn2-c2cccc(-c3cccc(OCc4ccc(-c5ccccc5)cc4)c3)c2)nn1` (racemic) [Example 237, 1-(3′-([1,1′-Biphenyl]-4-ylmethoxy)-[1,1′-biphenyl]-3-yl)-5-((1,2-trans)-2-(1-methyl-1H-1,2,3-triazol-4-yl)cyclopropyl)-1H-pyrazole-4-carboxylic Acid], the values for the IC50 in experiment [1] and in experiment [2] were 1000 to 10000 nM and 100 to 1000 nM, respectively.

On to `Cn1cc([C@@H]2C[C@H]2c2c(C(=O)O)cnn2-c2cccc(-c3cccc(OCC4CCSCC4)c3)c2)nn1` (racemic) [Example 149, 5-((1,2-trans)-2-(1-Methyl-1H-1,2,3-triazol-4-yl)cyclopropyl)-1-(3′-((tetrahydro-2H-thiopyran-4-yl)methoxy)-[1,1′-biphenyl]-3-yl)-1H-pyrazole-4-carboxylic acid], for which the 50% inhibitory concentration (IC50) in experiment [1] and in experiment [2] was 100 to 1000 nM each time.

For the compound `Cn1cc([C@@H]2C[C@H]2c2c(C(=O)O)cnn2-c2cccc(-c3cccc(OC(C4CCCCC4)C(F)(F)F)c3)c2)nn1` (mixture of isomers) [Example 157, 1-(3′-(1-Cyclohexyl-2,2,2-trifluoroethoxy)-[1,1′-biphenyl]-3-yl)-5-((1,2-trans)-2-(1-methyl-1H-1,2,3-triazol-4-yl)cyclopropyl)-1H-pyrazole-4-carboxylic Acid], the IC50 in experiment [1] and in experiment [2] was 100 to 1000 nM each time.

`Cn1cc(C2CC2c2c(C(=O)O)cnn2-c2cccc(-c3cccc(OCCC(C)(C)C)c3)c2)nn1` (centres unmarked) [Example 225, 1-(3′-(3,3-Dimethylbutoxy)-[1,1′-biphenyl]-3-yl)-5-(2-(1-methyl-1H-1,2,3-triazol-4-yl)cyclopropyl)-1H-pyrazole-4-carboxylic acid]: the concentration for half-maximal inhibition (IC50) in experiment [1] lay within 100 to 1000 nM; in experiment [2], 10 to 100 nM.

In the case of `CCC[C@@H]1CCCCN1C(=O)c1cccc(-c2cc(C)cc(-n3ncc(C(=O)O)c3C3CC3c3cn(C)nn3)c2)c1` (stereo partly drawn) [Example 154, 5-(2-(1-Methyl-1H-1,2,3-triazol-4-yl)cyclopropyl)-1-(5-methyl-3′-((R)-2-propylpiperidine-1-carbonyl)-[1,1′-biphenyl]-3-yl)-1H-pyrazole-4-carboxylic Acid], the IC50 in experiment [1] and in experiment [2] was 10 to 100 nM each time.

Take `Cc1nnc(-c2cccc(-c3cccc(-n4ncc(C(=O)O)c4C4CC4)c3)c2)o1` [Example 210, 5S-Cyclopropyl-1-(3′-(5-methyl-1,3,4-oxadiazol-2-yl)-[1,1′-biphenyl]-3-yl)-1H-pyrazole-4-carboxylic acid]: the concentration for half-maximal inhibition (IC50) in experiment [1] is above 100000 nM; in experiment [2], above 10000 nM.

As to `Cn1cc(C2CC2c2c(C(=O)O)cnn2-c2cccc(-c3cccc(OCc4ccc(F)cc4)c3)c2)nn1` (centres unmarked) [Example 223, 1-(3′-((4-Fluorobenzyl)oxy)-[1,1′-biphenyl]-3-yl)-5-(2-(1-methyl-1H-1,2,3-triazol-4-yl)cyclopropyl)-1H-pyrazole-4-carboxylic acid], the figures for the half-inhibitory concentration (IC50) in experiment [1] and in experiment [2] were 1000 to 10000 nM and 100 to 1000 nM, respectively.

Regarding `Cn1cc(C2CC2c2c(C(=O)O)cnn2-c2cccc(-c3cccc(C(O)CC4CCCCC4)c3)c2)nn1` (centres unmarked) [Example 217, 1-(3′-(2-Cyclohexyl-1-hydroxyethyl)-[1,1′-biphenyl]-3-yl)-5-(2-(1-methyl-1H-1,2,3-triazol-4-yl)cyclopropyl)-1H-pyrazole-4-carboxylic acid], the IC50 in experiment [1] and in experiment [2] was 100 to 1000 nM throughout.

As for `Cn1cc([C@H]2C[C@@H]2c2c(C(=O)O)cnn2-c2cccc(-c3cccc(OC[C@H]4CC[C@H](Cl)CC4)c3)c2)nn1` (racemic) [Example 185, 1-(3′-((4-Chlorocyclohexyl)methoxy)-[1,1′-biphenyl]-3-yl)-5-((1,2-trans)-2-(1-methyl-1H-1,2,3-triazol-4-yl)cyclopropyl)-1H-pyrazole-4-carboxylic Acid], the half-inhibitory concentration (IC50) in experiment [1] and in experiment [2] was 100 to 1000 nM in each case.

In the case of `Cn1cc(C2CC2c2c(C(=O)O)cnn2-c2cccc(-c3cccc(OCc4ccccc4F)c3)c2)nn1` (centres unmarked) [Example 222, 1-(3′-((2-Fluorobenzyl)oxy)-[1,1′-biphenyl]-3-yl)-5-(2-(1-methyl-1H-1,2,3-triazol-4-yl)cyclopropyl)-1H-pyrazole-4-carboxylic acid], the concentration for half-maximal inhibition (IC50) lay within 100 to 1000 nM in experiment [1] and 10 to 100 nM in experiment [2].

As to `Cn1cc([C@H]2C[C@@H]2c2c(C(=O)O)cnn2-c2cccc(-c3cccc(-n4ncc5c4C(C)(C)CC5)c3)c2)nn1` (stereo in doubt) [Example 208, 1-(3′-(6,6-Dimethyl-5,6-dihydrocyclopenta[c]pyrazol-1(4H)-yl)-[1,1′-biphenyl]-3-yl)-5-((1S,2S)-2-(1-methyl-1H-1,2,3-triazol-4-yl)cyclopropyl)-1H-pyrazole-4-carboxylic Acid], the half-inhibitory concentration (IC50) in experiment [1] and in experiment [2] was 10 to 100 nM throughout.

Regarding `CCC[C@@H]1CCCCN1C(=O)c1cccc(-c2cccc(-n3ncc(C(=O)O)c3[C@@H]3C[C@H]3c3cn(C)nn3)c2)c1` [Example 51h, 5-[(1R,2R)-2-(1-methyl-1H-1,2,3-triazol-4-yl)cyclopropyl]-1-(3-{3-[(2R)-2-propylpiperidine-1-carbonyl]phenyl}phenyl)-1H-pyrazole-4-carboxylic Acid], the IC50 in experiment [1] and in experiment [2] was 10 to 100 nM in each case.

Consider `CCCCC1CCc2cnn(-c3cccc(-c4cccc(-n5ncc(C(=O)O)c5C5CC5)c4)c3)c21` (centres unmarked) [Example 206, 1-(3′-(6-Butyl-5,6-dihydrocyclopenta[c]pyrazol-1(4H)-yl)-[1,1′-biphenyl]-3-yl)-5-cyclopropyl-1H-pyrazole-4-carboxylic Acid], for which the IC50 in experiment [1] lay within 1000 to 10000 nM; in experiment [2] it was 100 to 1000 nM.

Consider `CCC[C@@H]1CCCCN1C(=O)c1cccc(-c2cccc(-n3ncc(C(=O)O)c3[C@H]3C[C@@H]3c3cn(C)nn3)c2)c1` [Example 51g, 5-[(1S,2S)-2-(1-methyl-1H-1,2,3-triazol-4-yl)cyclopropyl]-1-(3-{3-[(2R)-2-propylpiperidine-1-carbonyl]phenyl}phenyl)-1H-pyrazole-4-carboxylic Acid], for which the IC50 in experiment [1] lay in the range of 1000 to 10000 nM; in experiment [2], 100 to 1000 nM.

With `CCC[C@@H]1CCCCN1C(=O)c1cccc(-c2cccc(-n3ncc(C(=O)O)c3C3CC3c3cn(C)nn3)c2)c1F` (stereo partly drawn) [Example 57, 1-(2′-Fluoro-3′-((R)-2-propylpiperidine-1-carbonyl)-[1,1′-biphenyl]-3-yl)-5-(2-(1-methyl-1H-1,2,3-triazol-4-yl)cyclopropyl)-1H-pyrazole-4-carboxylic Acid], the half-maximal inhibitory concentration (IC50) in experiment [1] and in experiment [2] was 10 to 100 nM throughout.

Turning to `O=C(O)c1cnn(-c2cccc(-c3cccc(-n4ncc5c4CCCC5)c3)c2)c1C1CC1` [Example 62, 5-cyclopropyl-1-(3′-(4,5,6,7-tetrahydro-1H-indazol-1-yl)-[1,1′-biphenyl]-3-yl)-1H-pyrazole-4-carboxylic Acid], the IC50 in experiment [1] is 1000 to 10000 nM; in experiment [2] it was 100 to 1000 nM.

For `Cn1cc(C2CC2c2c(C(=O)O)cnn2-c2cccc(-c3cccc(OC4CCOCC4)c3F)c2)nn1` (centres unmarked) [Example 234, 1-(2′-Fluoro-3′-((tetrahydro-2H-pyran-4-yl)oxy)-[1,1′-biphenyl]-3-yl)-5-(2-(1-methyl-1H-1,2,3-triazol-4-yl)cyclopropyl)-1H-pyrazole-4-carboxylic Acid], the concentration for half-maximal inhibition (IC50) in experiment [1] fell in the range of 100 to 1000 nM; in experiment [2], 10 to 100 nM.
